Source: the NIST ThermoML archive (doi:10.1016/j.jct.2016.06.018)

Assay: mn = molality of the nth substance listed, in mol/kg
Conditions: 101 kPa, Liquid, Vibrating tube method

CCCCCCCCCCCC[N+](C)(C)CCOc1ccccc1.[Br-] [Domiphen bromide] + O
mass density [kg/m3]
Conditions | 293.15 K | 298.15 K | 303.15 K | 308.15 K
m1 = 0.04 | 999.65 | 998.37 | 996.97 | 995.39
m1 = 0.08 | 1000.98 | 999.84 | 998.36 | 996.78
